Measurements reported in ChEMBL document CHEMBL2413072, “Synthesis and in vitro anticancer studies of novel C-2 arylidene congeners of lantadenes” (2013).

Tests used:
Assay type in all cases: functional
[1] = system: HCT-116; test: Growth inhibition of human HCT116 cells assessed as cell growth at 10^-7 M by sulforhodamine B assay; conditions: read-out: Activity
[2] = system: T47D; test: Growth inhibition of human T47D cells assessed as cell growth at 10^-8 M by sulforhodamine B assay; conditions: read-out: Activity
[3] = system: MCF7; test: Growth inhibition of human MCF7 cells assessed as cell growth at 10^-8 M by sulforhodamine B assay; conditions: read-out: Activity
[4] = system: OVCAR-4; test: Growth inhibition of human OVCAR4 cells by sulforhodamine B assay
[5] = system: HOP-62; test: Growth inhibition of human HOP62 cells by sulforhodamine B assay
[6] = system: UACC-257; test: Growth inhibition of human UACC257 cells assessed as cell growth at 10^-6 M by sulforhodamine B assay; conditions: read-out: Activity
[7] = system: PC-3; test: Growth inhibition of human PC3 cells assessed as cell growth at 10^-8 M by sulforhodamine B assay; conditions: read-out: Activity
[8] = system: HOP-92; test: Growth inhibition of human HOP92 cells assessed as cell growth at 10^-4 M by sulforhodamine B assay; conditions: read-out: Activity
[9] = system: NCI-H460; test: Growth inhibition of human NCI-H460 cells assessed as cell growth at 10^-6 M by sulforhodamine B assay; conditions: read-out: Activity
[10] = system: SK-OV-3; test: Growth inhibition of human SKOV3 cells assessed as cell growth at 10^-6 M by sulforhodamine B assay; conditions: read-out: Activity
[11] = system: M14; test: Growth inhibition of human M14 cells assessed as cell growth at 10^-7 M by sulforhodamine B assay; conditions: read-out: Activity
[12] = system: NCI-H322M; test: Growth inhibition of human NCI-H322M cells assessed as cell growth at 10^-4 M by sulforhodamine B assay; conditions: read-out: Activity
[13] = system: U-251; test: Growth inhibition of human U251 cells assessed as cell growth at 10^-6 M by sulforhodamine B assay; conditions: read-out: Activity
[14] = system: HCT-15; test: Growth inhibition of human HCT15 cells assessed as cell growth at 10^-4 M by sulforhodamine B assay; conditions: read-out: Activity
[15] = Growth inhibition of human HCC2998 cells assessed as cell growth at 10^-4 M by sulforhodamine B assay; conditions: HCC 2998, read-out: Activity
[16] = system: CCRF-CEM; test: Growth inhibition of human CCRF-CEM cells assessed as cell growth at 10^-4 M by sulforhodamine B assay; conditions: read-out: Activity
[17] = system: MOLT-4; test: Growth inhibition of human MOLT4 cells by sulforhodamine B assay
[18] = system: RXF 393; test: Growth inhibition of human RXF393 cells assessed as cell growth at 10^-4 M by sulforhodamine B assay; conditions: read-out: Activity
[19] = system: UO-31; test: Growth inhibition of human UO31 cells assessed as cell growth at 10^-4 M by sulforhodamine B assay; conditions: read-out: Activity
[20] = system: TK-10; test: Growth inhibition of human TK10 cells assessed as cell growth at 10^-4 M by sulforhodamine B assay; conditions: read-out: Activity
[21] = system: SNB-19; test: Growth inhibition of human SNB19 cells assessed as cell growth at 10^-8 M by sulforhodamine B assay; conditions: read-out: Activity
[22] = system: NCI-H460; test: Growth inhibition of human NCI-H460 cells assessed as cell growth at 10^-8 M by sulforhodamine B assay; conditions: read-out: Activity
[23] = system: A498; test: Growth inhibition of human A498 cells assessed as cell growth at 10^-6 M by sulforhodamine B assay; conditions: read-out: Activity
[24] = system: SF-295; test: Growth inhibition of human SF295 cells assessed as cell growth at 10^-7 M by sulforhodamine B assay; conditions: read-out: Activity
[25] = system: RXF 393; test: Growth inhibition of human RXF393 cells assessed as cell growth at 10^-8 M by sulforhodamine B assay; conditions: read-out: Activity
[26] = system: SN12C; test: Growth inhibition of human SN12C cells by sulforhodamine B assay
[27] = system: DU-145; test: Growth inhibition of human DU145 cells assessed as cell growth at 10^-8 M by sulforhodamine B assay; conditions: read-out: Activity
[28] = system: T47D; test: Growth inhibition of human T47D cells assessed as cell growth at 10^-7 M by sulforhodamine B assay; conditions: read-out: Activity
[29] = system: MOLT-4; test: Growth inhibition of human MOLT4 cells assessed as cell growth at 10^-4 M by sulforhodamine B assay; conditions: read-out: Activity
[30] = system: SW-620; test: Growth inhibition of human SW620 cells assessed as cell growth at 10^-4 M by sulforhodamine B assay; conditions: read-out: Activity
[31] = system: NCI-H322M; test: Growth inhibition of human NCI-H322M cells assessed as cell growth at 10^-6 M by sulforhodamine B assay; conditions: read-out: Activity
[32] = system: IGROV-1; test: Growth inhibition of human IGROV1 cells assessed as cell growth at 10^-7 M by sulforhodamine B assay; conditions: read-out: Activity
[33] = system: MCF7; test: Growth inhibition of human MCF7 cells assessed as cell growth at 10^-6 M by sulforhodamine B assay; conditions: read-out: Activity
[34] = system: RPMI-8226; test: Growth inhibition of human RPMI8226 cells by sulforhodamine B assay
[35] = system: HL-60(TB); test: Growth inhibition of human HL-60(TB) cells assessed as cell growth at 10^-8 M by sulforhodamine B assay; conditions: read-out: Activity
[36] = system: SK-OV-3; test: Growth inhibition of human SKOV3 cells assessed as cell growth at 10^-8 M by sulforhodamine B assay; conditions: read-out: Activity
[37] = Growth inhibition of human HCC2998 cells by sulforhodamine B assay
[38] = system: SK-MEL-5; test: Growth inhibition of human SK-MEL-5 cells assessed as cell growth at 10^-7 M by sulforhodamine B assay; conditions: read-out: Activity
[39] = system: OVCAR-4; test: Growth inhibition of human OVCAR4 cells assessed as cell growth at 10^-6 M by sulforhodamine B assay; conditions: read-out: Activity
[40] = system: HT-29; test: Growth inhibition of human HT-29 cells assessed as cell growth at 10^-8 M by sulforhodamine B assay; conditions: read-out: Activity
[41] = system: SF-268; test: Growth inhibition of human SF268 cells assessed as cell growth at 10^-6 M by sulforhodamine B assay; conditions: read-out: Activity
[42] = system: K562; test: Growth inhibition of human K562 cells assessed as cell growth at 10^-7 M by sulforhodamine B assay; conditions: read-out: Activity
[43] = read-out: LC50 (the source's name)
[44] = read-out: pLC50 (the source's name) (converted)

CC1(C)C[C@@H](O)[C@]2(C(=O)O)CC[C@]3(C)C(=CC[C@@H]4[C@@]5(C)C/C(=C\C=C\c6ccccc6)C(=O)C(C)(C)[C@@H]5CC[C@]43C)[C@@H]2C1
growth at 0.1 µM [1]: 99%
growth at 0.01 µM [2]: 101%
growth at 0.01 µM [3]: 95%
GI50 ([4]; read-out: GI50): 3.85 µM
CC50 [4, 43]: 40.2 µM
TGI ([4]; read-out: TGI): 15.4 µM
GI50 ([4]; read-out: pGI50 (converted)): 3.89 µM
CC50 [4, 44]: 39.8 µM
TGI ([4]; read-out: pTGI (converted)): 15.5 µM
GI50 ([5]; read-out: GI50): 4.72 µM
LC50 (concentration killing 50% of cells) ([5]; read-out: LC50): 83.5 µM
TGI ([5]; read-out: TGI): 21.2 µM
GI50 ([5]; read-out: pGI50 (converted)): 4.68 µM
LC50 (concentration killing 50% of cells) ([5]; read-out: pLC50 (converted)): 83.2 µM
TGI ([5]; read-out: pTGI (converted)): 21.4 µM
growth at 1 µM [6]: 89%
growth at 0.01 µM [7]: 97%
growth at 100 µM [8]: -76%
growth at 1 µM [9]: 97%
growth at 1 µM [10]: 96%
growth at 0.1 µM [11]: 95%
growth at 100 µM [12]: -78%
growth at 1 µM [13]: 85%
growth at 100 µM [14]: -80%
growth at 100 µM [15]: -93%
growth at 100 µM [16]: -19%
GI50 ([17]; read-out: GI50): 2.48 µM
CC50 [17, 43]: > 100 µM
TGI ([17]; read-out: TGI): 7.84 µM
GI50 ([17]; read-out: pGI50 (converted)): 2.45 µM
CC50 [17, 44]: > 100 µM
TGI ([17]; read-out: pTGI (converted)): 7.76 µM
growth at 100 µM [18]: -92%
growth at 100 µM [19]: -82%
growth at 100 µM [20]: -86%
growth at 0.01 µM [21]: 94%
growth at 0.01 µM [22]: 102%
growth at 1 µM [23]: 80%
growth at 0.1 µM [24]: 98%
growth at 0.01 µM [25]: 94%
GI50 ([26]; read-out: GI50): 2.92 µM
CC50 [26, 43]: 36.1 µM
TGI ([26]; read-out: TGI): 10.7 µM
GI50 ([26]; read-out: pGI50 (converted)): 2.88 µM
CC50 [26, 44]: 36.3 µM
TGI ([26]; read-out: pTGI (converted)): 10.7 µM
growth at 0.01 µM [27]: 106%
growth at 0.1 µM [28]: 96%
growth at 100 µM [29]: -28%
growth at 100 µM [30]: -57%
growth at 1 µM [31]: 94%
growth at 0.1 µM [32]: 112%
growth at 1 µM [33]: 95%
GI50 ([34]; read-out: GI50): 2.58 µM
CC50 [34, 43]: > 100 µM
TGI ([34]; read-out: TGI): 7.96 µM
GI50 ([34]; read-out: pGI50 (converted)): 2.57 µM
CC50 [34, 44]: > 100 µM
TGI ([34]; read-out: pTGI (converted)): 7.94 µM
growth at 0.01 µM [35]: 101%
growth at 0.01 µM [36]: 96%
GI50 ([37]; HCC 2998, read-out: GI50): 2.95 µM
CC50 ([37]; HCC 2998, read-out: LC50 (the source's name)): 27.9 µM
TGI ([37]; HCC 2998, read-out: TGI): 7.55 µM
GI50 ([37]; HCC 2998, read-out: pGI50 (converted)): 2.95 µM
CC50 ([37]; HCC 2998, read-out: pLC50 (the source's name) (converted)): 28.2 µM
TGI ([37]; HCC 2998, read-out: pTGI (converted)): 7.59 µM
growth at 0.1 µM [38]: 95%
growth at 1 µM [39]: 89%
growth at 0.01 µM [40]: 104%
growth at 1 µM [41]: 90%
growth at 0.1 µM [42]: 102%
